Reference: US11191811B2, “Osteocalcin as a treatment for frailty associated with aging” (THE TRUSTEES OF COLUMBIA UNIVERSITY IN THE CITY OF NEW YORK, priority 2014, dated 2021)

Experiments:
muscle = assay: Gene expression in muscle (qPCR); assay type: in vivo, mouse
Experimental: FIG. 31. Osteocalcin treatment increases muscle function in young and old WT mice. (A-B) Performance during endurance exercise of 3 month-old WT, Gprc6af/f and Gprc6aMck−/− female mice treated with Ocn (n=6-10 per group). (C) Performance during endurance exercise of 12 and 15 month-old WT female mice treated with Ocn (n=6-10 per group). (D) Western blot analysis of Akt phosphorylation (Ser473) in muscles of WT mice injected with Ocn (500 ng/g) after a single bout of exercise. (E) Western blot analysis of AMPK phosphorylation ([…]) in muscles of WT mice injected with Ocn (500 ng/g) after a single bout of exercise. (F) Western blot analysis of HSL phosphorylation (Ser563) in muscles of WT mice injected with Ocn (500 ng/g) after a single bout of exercise. (G) Uptake of ^3H-2-DG in glycolytic (Gly—white quadriceps) and oxidative (Ox—red quadriceps) muscles after a single bout of exercise in 15 month-old WT mice receiving Ocn before running (n=5 per group). (H) Performance during endurance exercise of 10 month-old WT mice receiving Ocn for 28 days (n=7 per group). (I) Expression of Cd36, Fatp1 and Cpt1b in gastrocnemius of 10 month-old WT mice receiving Ocn for 28 days (n=7 per group). (J) Western blot analysis of Akt phosphorylation (Ser473) in muscles of WT mice receiving Ocn for 28 days (n=7 per group). (K) Schematic representation of how osteocalcin signaling in myofibers and IL-6 cooperate to increase exercise capacity.
Serum osteocalcin, PINP, CTX, and insulin levels were measured using ELISA assays. Blood glucose level was measured using an Accu-Check glucometer. Urine 3-MHT was measured as previously described (Aranibar et al., 2011, Anal. Biochem. 410:84-91). Determination of cAMP accumulation was performed using a commercial kit (R&D). For gene expression, 1 μg of total RNA was reverse transcribed into cDNA. qPCR analyses were performed using a SYBER green master mix (Applied Biosciences) and a CFX-Connect real time PCR (Bio-Rad). Relative expression levels of each gene were normalized to that of Hprt or Gapdh. […]

Osteocalcin−/− mice = assay: Behavioral tests of adult Osteocalcin−/− offspring of osteocalcin-injected pregnant Osteocalcin−/− mothers; assay type: in vivo, mouse; settings: 240 ng/day once a day to pregnant mothers, E0.5 to E18.5
Experimental: FIG. 13. Maternal osteocalcin determines spatial learning and memory in adult offspring. (A-F) DLT (A), EPMT (B), OFT (C), FST (D), TST (E), and MWMT (F) performed in 3-month-old Osteocalcin^−/− mice born from Osteocalcin^−/− mothers injected once a day with vehicle or recombinant uncarboxylated osteocalcin (240 ng/day) during pregnancy compared to WT mice. (G) Surface of the lateral ventricle over brain area (%) of E18.5 hippocampi coronal sections of WT embryos originating from WT mothers and Osteocalcin^−/− embryos originating from osteocalcin-injected Osteocalcin^−/− mothers. (H) Number of apoptotic cells (stained by TUNEL assay) of E18.5 hippocampi coronal sections of WT embryos originating from WT mothers and Osteocalcin^−/− embryos originating from Osteocalcin^−/− mothers injected with osteocalcin (240 ng/day). […]
For osteocalcin delivery to pregnant mice, IP injections (240 ng/day) were performed as soon as a plug was present daily until delivery (E0.5-E18.5). […] Leptin and osteocalcin content in sera and tissues were determined by ELISA.
Spatial memory was assessed with Morris water maze (MWM) setup (Morris, 1981, Nature 297:681-683) using a training protocol adapted for mice (D'Hooge et al., 2005, J. Soc. Neurosci. 25:6539-6549). […] Spatial learning is assessed across repeated trials (4 trials/day for 10 days). […]

In the case of “uncarboxylated osteocalcin: Recombinant uncarboxylated mouse osteocalcin, bacterially produced, purified on glutathione beads and cleaved from the GST subunit by thrombin (YLGASVPSPDPLEPTREQCELNPACDELSDQYGLKTAYKRIYGITI)”, the “expression in muscles of Glut1” value (muscle; at rest or after exercise) was “did not affect”, the “expression in muscles of Glut4” value (muscle; at rest or after exercise) was “did not affect” and the “expression in muscle of Fatp1” value (muscle; mini-pumps 90 ng/hour for 28 days) was “increase”. For the same substance, the “anxiety or depression phenotypes of the offspring” value (Osteocalcin−/− mice) was “did not have any beneficial effect” and the “deficit in learning and memory of the offspring” value (Osteocalcin−/− mice) was “rescued over two third”.
